Values joined by “and” are separate entries in the source; they are usually repeats but may differ in a detail not shown here. Equal entries are not always repeated.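 Dose response: 5 concentrations. Exposure: 48 h. Format: 96-well plates. Endpoint: linear interpolation; highest concentration if not reached. GI50: concentration for 50% inhibition of growth. TGI: total growth inhibition.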
Test system: MDA-MB-468 breast
Assay: growth of human tumour cells (NCI), 48 h

SMILES	GI50	TGI
CC1(C)N=C(N)N=C(N)N1c1ccc(OCc2ccc(S(=O)(=O)F)c(Cl)c2)c(Cl)c1	2290 nM	> 100000 nM
COc1ncc(-c2ccc3ncnc(Nc4cccc(Cl)c4)c3c2)cc1NS(=O)(=O)CCN1CCOCC1	< 10 nM	437 nM
CC[CH2][Sn]([Cl])([Cl])[CH2]CC.Oc1ccccc1C=NCCN=Cc1ccccc1O	1510 nM	3270 nM
O=C1/C(=C/c2ccc(O)cc2)CSc2ccc(Cl)cc21	4840 nM	28000 nM
Cc1ccc(NC(=O)c2sc3nc(C)c(C(O)c4ccccc4)cc3c2N)cc1 (stereo not drawn)	349 nM	50700 nM
CCCn1cnc2c(c1=N)C(c1ccc(F)cc1)c1sc3c(C)cccc3c1O2 (stereo not drawn)	1290 nM	19200 nM
CN1CCN(c2ccc(Nc3nc(NCCCNS(=O)(=O)c4ccc(C(F)(F)F)cc4)c4sccc4n3)cc2)CC1	1730 nM	3560 nM
COc1ccc(-c2nnc(COc3ccc(NC(=O)Nc4ccc(Cl)c(C(F)(F)F)c4)cc3F)o2)cc1	2270 nM	8600 nM
COC(=O)[C@H](Cc1c[nH]c2ccccc12)NC(=O)[C@@H](OC)[C@@H]1Cc2cc3cc(OC4CC(OC5CC(O)C(O)C(C)O5)C(O)C(C)O4)c(C)c(O)c3c(O)c2C(=O)[C@H]1OC1CC(OC2CC(OC3CC(C)(O)C(O)C(C)O3)C(O)C(C)O2)C(O)C(C)O1 (stereo partly drawn)	3.21 nM	11 nM
Cn1c2ccccc2c2c3[nH]c(=O)[nH]c(=O)c3c3c4ccccc4n(C)c3c21	3510 nM	29100 nM
CCc1oc2ccccc2c1C(=O)c1cc(I)c(O)c(I)c1	2380 nM	8500 nM
COc1ccc2nc3cc(Cl)ccc3c(NCCN)c2c1	1840 nM	3790 nM
Cc1ccc2c3c(c(=O)[nH]c2c1)C1(C(C#N)=C(N)O3)c2cc(Br)ccc2-c2ccc(Br)cc21	1640 nM	3550 nM
COC(=O)C12C3C4C1C1C2C3C41NC(=O)c1csc([C@@H](C[C@H](C(C)C)N(C)C(=O)[C@@H](NC(=O)[C@H]2CCCCN2C)C2CC2)OC(C)=O)n1 (stereo partly drawn)	19.8 nM	31500 nM
Nc1nc(-c2cccc(Cl)c2)c(-c2ccc3ncccc3n2)s1	> 15700 nM	> 25000 nM
CC[C@H](C)[C@H]1O[C@]2(C=C[C@@H]1C)C[C@@H]1C[C@@H](C/C=C(\C)[C@@H](O[C@H]3C[C@H](OC)[C@@H](O[C@H]4C[C@H](OC)[C@@H](NC)[C@H](C)O4)[C@H](C)O3)[C@@H](C)/C=C/C=C3\CO[C@@H]4[C@H](O)C(C)=C[C@@H](C(=O)O1)[C@]34O)O2	1460 nM	3170 nM
Fc1ccc(-c2nn3ncccc3c2-c2ccnc(Nc3ccc4c(c3)OCCO4)n2)cc1	624 nM	3240 nM
Cc1ccc(C(=O)Nc2ccc(CN3CCN(C)CC3)c(C(F)(F)F)c2)cc1C#Cc1cnc(N)c2ccccc12	620 nM	1640 nM
CON(C)C(=O)N1N=C(c2cc(F)ccc2F)SC1(CCCN)c1ccccc1 (stereo not drawn)	< 10 nM	1570 nM and 456 nM
CCCCCN(CCCCC)CC(O)c1ccc(Cl)c2ccccc12 (stereo not drawn)	11100 nM	24000 nM

SMILES	GI50	TGI
CCOC(=O)c1c(C)nc2c(c1N)/C(=C/c1ccc(OC)cc1)C(=O)N2Cc1ccc(F)cc1	194 nM	650 nM
COc1ccc(OC)c(C(=O)c2oc3ccc(Br)cc3c2N)c1	206 nM	5220 nM
N#Cc1cccc(NC(=O)c2cc(-c3ccc(F)cc3F)ccc2O)c1	1660 nM and 1450 nM	5940 nM and 6400 nM
C/C(=N\Nc1ccc(Cl)cn1)c1ccccn1	65.5 nM	293 nM
CC(C)(C)c1cc(NC(=O)Cc2ccc(-c3cnc4cc(-c5cnn(CCN6CCOCC6)c5)ccc4n3)cc2)no1	700 nM and 796 nM and 111 nM	50000 nM and > 100000 nM and > 3000 nM
C=C(C)C1CCC2(C(=O)O)CCC3(C)C(CCC4C5(C)CCC(OC(=O)NCc6ccccc6)C(C)(C)C5CCC43C)C12 (stereo not drawn)	1730 nM	34700 nM
Cc1ccc(NC(=O)NCCCOc2ccc(N3C(N)=NC(N)=NC3(C)C)cc2Cl)cc1S(=O)(=O)F	17300 nM	> 100000 nM
Cc1c2cc(O)c(=O)cc-2oc2cc(O)c(O)cc12	> 100000 nM	> 100000 nM
COc1cc(/C=C2\CCCC3=C2NC(C)=NC3c2cc(OC)c(OC)c(OC)c2)cc(OC)c1OC (stereo not drawn)	1180 nM	3910 nM
O=C(/C=C\n1cnc(-c2cc(C(F)(F)F)cc(C(F)(F)F)c2)n1)NNc1cnccn1	92.3 nM	657 nM
COC(=O)c1c(C)[nH]c(/C=C2\N=C(c3ccc[nH]3)C=C2OC)c1C	1200 nM	2730 nM
Cc1cc(O)c(C(C)(C)C)cc1Sc1cc(C(C)(C)C)c(O)cc1C	2090 nM	5120 nM
C=C1C(=O)O[C@H]2[C@H]1CC/C(COC(=O)c1cc3ccccc3s1)=C\CC[C@@]1(C)O[C@@H]21	1630 nM	3950 nM
O=C(/C(=C/c1cccc([N+](=O)[O-])c1)c1ccccc1)c1ccccc1	2700 nM	8800 nM
O=S1(=O)N(CCNc2nccc(-c3c(-c4cccc(O)c4)nc4sccn34)n2)CCN1Cc1ccccc1	8460 nM	27900 nM
CC(C)(O)c1cncc(-c2ccc3ncc(C#N)c(N4CCc5cc(F)c(Cl)cc54)c3c2)c1	11800 nM	30600 nM
COc1cc(NS(=O)(=O)c2ccc(-c3cnc(C4CC4)o3)cc2)ccc1F	122 nM	11300 nM
C=C[C@H]1C[C@@H]2C[C@@H]3[C@H]4C/C=C\C(=O)NCCCC5NC(=O)C(=C(O)/C=C/[C@@H]4CC(=O)[C@H]3[C@@H]2[C@H]1C)C5=O (stereo partly drawn)	1590 nM	3090 nM
CCN(CC)CCCC(C)Nc1cnc(C(=O)Nc2cccc3ccc(OC)nc23)cn1 (stereo not drawn)	1580 nM	3190 nM

Reference: PubChem BioAssay (NCI)
